Measurements: ChEMBL document CHEMBL5131429, “Synthesis and antifungal evaluation of phenol-derived bis(indolyl)methanes combined with FLC against Candida albicans” (Bioorg Med Chem Lett, 2022)
In brackets after ≈: the same amount, converted by molar mass. Activity calls are given as the source filed them. The calls are words filed in the database; no cut-off is given here.

How the values were obtained:
[1] = system: Candida albicans; assay: Antifungal activity against Candida albicans SC5314 by microdilution method; type: functional
[2] = system: Candida albicans; assay: Antifungal activity against Candida albicans CA23 by microdilution method; type: functional
[3] = system: Candida albicans; assay: Antifungal activity against Candida albicans SC5314 in presence of fluconazole by microdilution method; type: functional
[4] = system: Candida albicans; assay: Antifungal activity against Candida albicans CA23 in presence of fluconazole by microdilution method; type: functional
[5] = system: Candida albicans; assay: Antifungal activity against Candida albicans SC5314 assessed as fractional inhibitory concentration index in presence of fluconazole by microdilution method; type: functional
[6] = system: Candida albicans; assay: Antifungal activity against Candida albicans CA23 assessed as fractional inhibitory concentration index in presence of fluconazole by microdilution method; type: functional
[7] = system: Candida albicans; assay: Antifungal activity against Candida albicans ATCC14053 by microdilution method; type: functional
[8] = system: Candida albicans; assay: Antifungal activity against Candida albicans CA187 by microdilution method; type: functional
[9] = system: Candida albicans; assay: Antifungal activity against Candida albicans CA800 by microdilution method; type: functional
[10] = system: Candida albicans; assay: Antifungal activity against Candida albicans CA3816 by microdilution method; type: functional
[11] = system: Candida albicans; assay: Antifungal activity against Candida albicans CA3511 by microdilution method; type: functional
[12] = system: Candida albicans; assay: Antifungal activity against Candida albicans CA5408 by microdilution method; type: functional
[13] = system: Candida albicans; assay: Antifungal activity against Candida albicans CA558 by microdilution method; type: functional
[14] = system: Candida albicans; assay: Antifungal activity against Candida albicans CA602 by microdilution method; type: functional
[15] = system: Candida albicans; assay: Antifungal activity against Candida albicans ATCC14053 in presence of fluconazole by microdilution method; type: functional
[16] = system: Candida albicans; assay: Antifungal activity against Candida albicans CA187 in presence of fluconazole by microdilution method; type: functional
[17] = system: Candida albicans; assay: Antifungal activity against Candida albicans CA800 in presence of fluconazole by microdilution method; type: functional
[18] = system: Candida albicans; assay: Antifungal activity against Candida albicans CA3816 in presence of fluconazole by microdilution method; type: functional
[19] = system: Candida albicans; assay: Antifungal activity against Candida albicans CA3511 in presence of fluconazole by microdilution method; type: functional
[20] = system: Candida albicans; assay: Antifungal activity against Candida albicans CA5408 in presence of fluconazole by microdilution method; type: functional
[21] = system: Candida albicans; assay: Antifungal activity against Candida albicans CA558 in presence of fluconazole by microdilution method; type: functional
[22] = system: Candida albicans; assay: Antifungal activity against Candida albicans CA602 in presence of fluconazole by microdilution method; type: functional
[23] = system: Candida albicans; assay: Antifungal activity against Candida albicans ATCC14053 assessed as fractional inhibitory concentration index in presence of fluconazole by microdilution method; type: functional
[24] = system: Candida albicans; assay: Antifungal activity against Candida albicans CA187 assessed as fractional inhibitory concentration index in presence of fluconazole by microdilution method; type: functional
[25] = system: Candida albicans; assay: Antifungal activity against Candida albicans CA800 assessed as fractional inhibitory concentration index in presence of fluconazole by microdilution method; type: functional
[26] = system: Candida albicans; assay: Antifungal activity against Candida albicans CA3816 assessed as fractional inhibitory concentration index in presence of fluconazole by microdilution method; type: functional
[27] = system: Candida albicans; assay: Antifungal activity against Candida albicans CA3511 assessed as fractional inhibitory concentration index in presence of fluconazole by microdilution method; type: functional
[28] = system: Candida albicans; assay: Antifungal activity against Candida albicans CA5408 assessed as fractional inhibitory concentration index in presence of fluconazole by microdilution method; type: functional
[29] = system: Candida albicans; assay: Antifungal activity against Candida albicans CA558 assessed as fractional inhibitory concentration index in presence of fluconazole by microdilution method; type: functional
[30] = system: Candida albicans; assay: Antifungal activity against Candida albicans CA602 assessed as fractional inhibitory concentration index in presence of fluconazole by microdilution method; type: functional
[31] = system: Candida albicans; assay: Antifungal activity against Candida albicans at 2 ug/mL in presence of 1 ug/mL fluconazole by Time-kill curve assay; type: functional, organism-based; conditions: dose 2.0 µg/ml
[32] = system: Candida albicans; assay: Antifungal activity against Candida albicans ATCC14053 assessed as decrease in number of hyphae at 2 ug/mL in presence of 1 ug/mL fluconazole by microscopic analysis; type: functional, organism-based; conditions: dose 2.0 µg/ml
[33] = system: Candida albicans; assay: Antifungal activity against Candida albicans ATCC14053 assessed as shortened length of hyphae at 2 ug/mL in presence of 1 ug/mL fluconazole by microscopic analysis; type: functional, organism-based; conditions: dose 2.0 µg/ml
[34] = system: Candida albicans; assay: Induction of ROS production in Candida albicans at 2 ug/ml in presence of 1 ug/mL fluconazole by DCFH-DA assay; type: functional; conditions: dose 2.0 µg/ml
[35] = system: Candida albicans; assay: Induction of mitochondrial membrane potential loss in Candida albicans at 2 ug/ml after 16 hrs in presence of 1 ug/mL fluconazole by JC-1 staining based fluorescence microplate reader; type: functional, organism-based; conditions: dose 2.0 µg/ml
[36] = system: Candida albicans; assay: Induction of mitochondrial membrane potential loss in Candida albicans at 2 ug/ml after 16 hrs by JC-1 staining based fluorescence microplate reader; type: functional, organism-based; conditions: dose 2.0 µg/ml
[37] = system: Candida albicans; assay: Effect on cell membrane permeability ib Candida albicans assessed as cell membrane damage at 2 ug/ml measured after 8 to 24 hrs in presence of 1 ug/mL fluconazole by PI staining based fluorescence analysis; type: functional; conditions: dose 2.0 µg/ml, time 8-24 hrs
[38] = Cytotoxicity against PBMC (unknown origin) by MTT assay; type: toxicity, cell-based
[39] = Cytotoxicity against human 16HBE by MTS assay; type: toxicity, cell-based; conditions: 16HBE14o- cells

Oc1c(Br)cccc1C(c1c[nH]c2ccccc12)c1c[nH]c2ccccc12
MIC80 [1]: > 200 µg/mL | MIC80 [2]: > 200 µg/mL | MIC80 [3]: 1.22 µg/mL | MIC80 [4]: 5.82 µg/mL | fractional inhibitory concentration index (FICI) [5]: 0.04 | fractional inhibitory concentration index (FICI) [6]: 0.02 | MIC80 [7]: > 200 µg/mL | MIC80 [8]: > 200 µg/mL | MIC80 [9]: > 200 µg/mL | MIC80 [10]: > 200 µg/mL | MIC80 [11]: > 200 µg/mL | MIC80 [12]: > 200 µg/mL | MIC80 [13]: > 200 µg/mL | MIC80 [14]: > 200 µg/mL | MIC80 [15]: 1.37 µg/mL | MIC80 [16]: 4.5 µg/mL | MIC80 [17]: 2.63 µg/mL | MIC80 [18]: 1.38 µg/mL | MIC80 [19]: 5.96 µg/mL | MIC80 [20]: 1.33 µg/mL | MIC80 [21]: 5.61 µg/mL | MIC80 [22]: 5.69 µg/mL | fractional inhibitory concentration index (FICI) [23]: 0.01 | fractional inhibitory concentration index (FICI) [24]: 0.02 | fractional inhibitory concentration index (FICI) [25]: 0.01 | fractional inhibitory concentration index (FICI) [26]: 0.01 | fractional inhibitory concentration index (FICI) [27]: 0.03 | fractional inhibitory concentration index (FICI) [28]: 0.01 | fractional inhibitory concentration index (FICI) [29]: 0.03 | fractional inhibitory concentration index (FICI) [30]: 0.03 | Activity [31]: Active | Activity [32]: Active | Activity [33]: Active | Activity [34]: Active | Activity [35]: Active | Activity [36]: Active | Activity [37]: Active | CC50 [38]: 32.7 µg/mL (≈ 78.5 µM) | CC50 [39]: 35.6 µg/mL (≈ 85.3 µM)
